Data as given in patent US10900018B2, “Means and methods for generation of breast stem cells” (Helmholtz Zentrum München—Deutsches Forschungszentrum Für …, priority 2015, dated 2021).

Tests used:
Assay type in all cases: cell-based, human
[1] = test system: HMEC; assay: ELDA of branched structure-forming units in floating collagen gels after 2D-culture; details: 2D-culture in presence of 10 μM Forskolin, donor M4
Source text: Mammary gland tissue was obtained from healthy women undergoing reduction mammoplasty at the Nymphenburg Clinic for Plastic and Aesthetic Surgery (Christian Gabka), in accordance with the regulations of the ethics committee of the Ludwig-Maximilian University Munich (proposal 397-12). Single cell suspensions of primary HMEC were generated as previously described with minor modifications ([…] et al., 2005). Briefly, the ductal tree was minced into about 1.0 mm^3 pieces and digested in collagenase I and hyaluronidase (both Sigma), and subsequently with Trypsin-EDTA and dispase (Life Technologies), and then cryopreserved. Before further processing, cells were filtered through a 40 μm strainer, to remove residual tissue fragments and cell aggregates. Cells were seeded in 2D on polystyrene cell culture plates or in collagen I gels in Mammary Epithelial Cell Growth Medium (MECGM, PromoCell) supplemented with 1% Pen/Strep (Invitrogen), 0.5% FCS (Pan Biotech), 3 μM Y-27632 (Biomol) and 10 μM Forskolin (Biomol), unless stated otherwise. After an establishment period of 5 days, medium was changed to MECGM supplemented with 1% Pen/Strep and 10 μM Forskolin, unless stated otherwise. […] Gels with at least one branched structure were counted as positive. […] Limiting dilutions were analyzed using a webtool, as described previously (Hu and Smyth, 2009).

[2] = test system: freshly isolated HMEC; assay: Structure formation by freshly isolated HMEC in floating collagen I gels
Source text: Mammary gland tissue was obtained from healthy women undergoing reduction mammoplasty at the Nymphenburg Clinic for Plastic and Aesthetic Surgery (Christian Gabka), in accordance with the regulations of the ethics committee of the Ludwig-Maximilian University Munich (proposal 397-12). Single cell suspensions of primary HMEC were generated as previously described with minor modifications (Stingl et al., 2005). Briefly, the ductal tree was minced into about 1.0 mm^3 pieces and digested in collagenase I and hyaluronidase (both Sigma), and subsequently with Trypsin-EDTA and dispase (Life Technologies), and then cryopreserved. Before further processing, cells were filtered through a 40 μm strainer, to remove residual tissue fragments and cell aggregates. Cells were seeded in 2D on polystyrene cell culture plates or in collagen I gels in Mammary Epithelial Cell Growth Medium (MECGM, PromoCell) supplemented with 1% Pen/Strep (Invitrogen), 0.5% FCS (Pan Biotech), 3 μM Y-27632 (Biomol) and 10 μM Forskolin (Biomol), unless stated otherwise. After an establishment period of 5 days, medium was changed to MECGM supplemented with 1% Pen/Strep and 10 μM Forskolin, unless stated otherwise.
Single cell suspensions containing the desired amount of cells were quickly mixed with neutralizing solution, and acidified rat tail collagen I (Corning) was added, resulting in a final collagen I concentration of 1.3 mg/ml. Next, the gel mixture was plated into siloxane-coated 24-well or 48-well plates. After polymerization of the gel, medium with supplements was carefully added and gels were detached from the well. Attached and attached-to-floating gels were prepared in uncoated 24-well plates. Cells were maintained for 8 up to 20 days (shorter periods for quantification and longer periods for long term treatments).
Mammary gland tissue was obtained from healthy women undergoing reduction mammoplasty at the Nymphenburg Clinic for Plastic and Aesthetic Surgery (Prof. Christian Gabka), in accordance with the regulations of the ethics committee of the Ludwig-Maximilian University Munich (proposal 397-12). Single cell suspensions of primary HMEC were generated as previously described with minor modifications (Stingl et al., 2005). Briefly, the ductal tree was minced into about 1 mm^3 pieces and enzymatically digested in tissue digestion buffer (F12:DME/HEPES, 1.5% w/v BSA) supplemented with 1 μg/ml insulin, 300 U/ml collagenase and 100 U/ml hyaluronidase (all Sigma) at 37° C. over night. The stromal compartment was optionally separated by differential centrifugation and cryopreserved. The pellet enriched for epithelial cells was further dissociated in 0.15% Trypsin-EDTA and 5 mg/ml dispase (Life Technologies) and then cryopreserved. Before further processing, cells were filtered through a 40 μm strainer, to remove residual tissue fragments and cell aggregates. Freshly isolated primary HMEC were seeded in Mammary Epithelial Cell Growth Medium (MECGM, PromoCell) supplemented with 1% Pen/Strep (Invitrogen), 0.5% FCS (Pan Biotech), 3 μM Y-27632 (Biomol) and 10 μM Forskolin (Biomol), unless otherwise stated. After an establishment period of 5 days, medium was changed to MECGM supplemented 1% Pen/Strep and 10 μM Forskolin, unless otherwise stated. Upon establishment, medium was replaced every 3-4 days. Cells were maintained in 5% CO2, 3% O2 for the whole culture period. […]

[3] = test system: HMEC; assay: Inhibition of contraction: alveologenesis after detachment of attached collagen gels; details: donor M10
Method: (§1) For contraction assays, 5×10^3 HMEC were plated or 3×10^3 sorted B+ cells/400 μl collagen gel and 1×10^4 LP cells/400 μl collagen gel. At day 12 of culture, 2 ng/μl TGF-β1 (R&D Systems) was added to the culture medium once. For inhibition of contraction experiments, 3×10^3 HMEC (Donor M10) were plated/400 μl collagen gel, and the gels were left attached to the culture dish. At day 13 of culture, when structures had formed, gels were detached and 10 μM Blebbistatin or 5 μM Y-27632 were added to the culture medium every 24 hours. To determine the number of cells per gel, collagen gels were minced using a scalpel, digested with 300 U/ml collagenase I (Sigma) for 1 hour at 37° C., followed by 0.15% trypsin (5 minutes at 37° C.), and filtered to obtain single cells. Cells were counted with a hemocytometer. Images of structures in the gels were acquired on a Leica DM IL LED microscope equipped with a HiPlan 10×/0.22 PH1 objective and images of whole gels were taken with a Zeiss SteREO Lumar.V12 microscope with a NeoLumar S 0.8×objective (6.4× Zoom).

[4] = test system: LP cells (CD49f+/EpCAM+); assay: Contraction of floating collagen I gels containing LP-derived spheres; details: 2.0 ng/ml TGF-β1 once
Method: as §1, with “At day 12 of culture, 2 ng/μl TGF-β1 (R&D Systems) was added to the culture medium once.” left out
(§2) Size of gels, structures, and cells was determined with the ImageJ tool for measurement of areas. Quantification of structures was carried out using the ImageJ cell counter. Structures with at least two branching points were considered as branched. For branching point analysis, branches were traced, one main branch was set, and one branching point was counted for each side-branch.

[5] = test system: B+ cells (CD10+/CD49fhi/EpCAM−); assay: Contraction of floating collagen I gels containing B+ cell derived TDLU-like structures
Method: as §1, with “At day 12 of culture, 2 ng/μl TGF-β1 (R&D Systems) was added to the culture medium once.” left out
as §2

[6] = 10 μM Forskolin, continuous treatment, donor M8

## C=C[C@@]1(C)CC(=O)[C@]2(O)[C@@]3(C)[C@@H](O)CCC(C)(C)[C@@H]3[C@H](O)[C@H](OC(C)=O)[C@@]2(C)O1 [Forskolin]
[1]; passage 1
  cells giving rise to a TDLU-like structure (B-SFU): 1/290
[1]; passage 3
  cells giving rise to a TDLU-like structure (B-SFU): 1/250
[2]; [6]
  increase of formation of TDLU-like branched structures: approximately 12 fold
  increase of formation of non-branched structures (mostly spheres): approximately 1.5 fold
  increase of overall branched structure-forming potential: 3 fold

## Cc1ccc2c(c1)C(=O)C1(O)CCN(c3ccccc3)C1=N2 (stereo not shown) [Blebbistatin]
[3]; 10 μM Blebbistatin every 24 hours from detachment at day 13
  acquisition of alveolar morphology after gel detachment: prevented

## C[C@@H](N)[C@H]1CC[C@H](C(=O)Nc2ccncc2)CC1 [Y-27632]
[3]; 5 μM Y-27632 every 24 hours from detachment at day 13
  acquisition of alveolar morphology after gel detachment: prevented
[2]; 3 μM Y-27632, added upon plating, removed after 5 days, floating collagen I gels, day 14, donor M8
  increase of branched structure formation: approximately 5 fold
[2]; continuous Y-27632 after 5 days of initial culture, data not shown
  effect of continuous treatment on morphogenesis: dissolution of cell-cell adhesion

## TGF-β1: recombinant TGF-β1, morphogen that promotes contractility (R&D Systems)
[4]; LP-derived spheres, donor M10
  effect on size of gels: did not have an effect
[4]; M3 luminal cells
  effect on size of gels: slight contraction
[5]; TGF-β1-treated B+ derived structures, donor M8, phalloidin F-actin staining
  average cell size in treated structures versus controls: significantly smaller
[5]; one-time treatment with 2.0 ng/ml recombinant TGF-β1 at day 12 of culture, gel size 2 days later, donors M3, M10
  increase of contraction of the gels: approximately 2 fold
